This note sets out measurements from BindingDB's records for doi:10.1111/cbdd.12255 (Federal University of Rio De Janeiro, 2014).

What is called Ki is the dissociation constant of the complex between target and ligand, obtained from inhibition or displacement. A low value points to higher affinity.

Experiment [1] deals with T1, Amine oxidase [flavin-containing] A (Homo sapiens, UniProt P21397).
T1 sequence (P21397 whole entry): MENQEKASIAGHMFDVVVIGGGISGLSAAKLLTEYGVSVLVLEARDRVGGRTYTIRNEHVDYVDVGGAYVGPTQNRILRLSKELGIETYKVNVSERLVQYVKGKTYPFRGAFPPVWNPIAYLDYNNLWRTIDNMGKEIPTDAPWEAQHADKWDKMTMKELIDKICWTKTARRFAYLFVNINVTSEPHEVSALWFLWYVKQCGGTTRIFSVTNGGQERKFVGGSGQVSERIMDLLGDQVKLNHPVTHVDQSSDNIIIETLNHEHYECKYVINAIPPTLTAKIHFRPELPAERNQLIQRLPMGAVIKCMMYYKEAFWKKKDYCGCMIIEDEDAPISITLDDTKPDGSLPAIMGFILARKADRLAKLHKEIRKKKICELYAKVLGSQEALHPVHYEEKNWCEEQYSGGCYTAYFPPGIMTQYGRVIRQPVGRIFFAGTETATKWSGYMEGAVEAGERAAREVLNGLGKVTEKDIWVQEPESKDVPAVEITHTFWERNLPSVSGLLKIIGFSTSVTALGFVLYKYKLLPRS
As to the kind of experiment: MAO Assay. The note with it: pH 7.4; 37 °C. The method, then: (§1) The reaction mixture (final volume 200 µL) contained 5 µg/mL MAO-A or MAO-B in a 50 mM sodium phosphate buffer pH 7.4, 1 mM p-tyramine (substrate for MAO-A) or 1 mM benzyl-amine (substrate for MAO-B), 1 U/mL HRP, and 200 µM AR was incubated, in the presence or absence of the inhibitors, at 37 °C for 45 min. The enzyme plus inhibitors were incubated at 37 °C for 20 min followed by the addition of the substrates, HRP and AR. The inhibitors were dissolved in 100% DMSO, and equivalent concentrations of DMSO alone (1-2%) were used as controls. Clorgyline (MAO-A inhibitor) or pargyline (MAO-B inhibitor) at 5 µM concentration was used as positive control for inhibition.

The target of experiment [2] is T2, Amine oxidase [flavin-containing] B (Homo sapiens, UniProt P27338).
T2 sequence (P27338 whole entry): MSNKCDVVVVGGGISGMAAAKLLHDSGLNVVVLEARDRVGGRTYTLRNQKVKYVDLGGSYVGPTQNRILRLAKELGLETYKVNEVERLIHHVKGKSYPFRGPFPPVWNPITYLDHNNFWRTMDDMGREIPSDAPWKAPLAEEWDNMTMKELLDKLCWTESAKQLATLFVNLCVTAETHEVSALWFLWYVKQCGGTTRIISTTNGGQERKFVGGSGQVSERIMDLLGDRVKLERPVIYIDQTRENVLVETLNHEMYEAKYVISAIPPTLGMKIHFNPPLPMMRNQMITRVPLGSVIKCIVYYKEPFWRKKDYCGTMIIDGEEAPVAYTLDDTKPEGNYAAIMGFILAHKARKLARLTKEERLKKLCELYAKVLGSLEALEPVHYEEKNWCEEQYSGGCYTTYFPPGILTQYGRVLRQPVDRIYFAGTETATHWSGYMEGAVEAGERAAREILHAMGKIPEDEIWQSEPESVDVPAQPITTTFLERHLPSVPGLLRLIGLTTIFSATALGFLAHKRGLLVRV
The experiment can be described thus: MAO Assay. The conditions noted are these: pH 7.4; 37 °C. On the procedure:
as §1

For the compound `CC(C)C=C1C(=O)C(=O)c2ccccc2C1=O`, the Ki in experiment [1] is 35 µM; in experiment [2] it was 18 µM.

For the compound `NCCCN(CCCC=Nc1cc(O)c2ccccc2c1O)Cc1ccccc1` [2‐({4‐[(3‐ aminopropyl)(benzyl)amino]butyl}amino)naphthalene‐ 1,4‐dione (Compound b2)], the Ki in experiment [1] amounted to 28 µM; in experiment [2] it was 12 µM.

For `CC(C)=Cc1c(N=CCCCN(CCCN)Cc2ccccc2)c(O)c2ccccc2c1O` [2‐({4‐[(3‐aminopropyl)(benzyl)amino]butyl}amino)‐3‐ (2‐methylprop‐1‐en‐1‐yl)naphthalene‐1,4‐dione (Compound c2)], the inhibitory constant (Ki) in experiment [1] is 63 µM; in experiment [2] it was 58 µM.

With `CC(C)=CCc1c(N=CCCCN(CCCN)Cc2ccccc2)c(O)c2ccccc2c1O` [2‐({4‐[(3‐aminopropyl)(benzyl)amino]butyl}amino)‐3‐ (3‐methylbut‐2‐en‐1‐yl)naphthalene‐1,4‐dione (Compound a2)], the figures for the Ki in experiment [1] and in experiment [2] were 22 µM and 40 µM, respectively.

On to `CC(C)=CCC1C(=O)C(=O)c2ccccc2C1=O` (centres undefined) [4-hydroxy-3-(3-methylbut-2-enyl)naphthalene-1,2-dione], for which the affinity in experiment [2] corresponds to a Ki of 59 µM.
